Measured values as given in PubChem BioAssay AID1845210 (Molecular Pharmacology Branch, DTP, NCI, 2023).

System: NCI-H226 complex tumor spheroids, viability
Assay: Anticancer human tumor NCI-H226 cell line growth inhibition;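 note: spheroids exposed to compound for 7 days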;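 for viability, T/C: 100% = DMSO vehicle control viability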
Settings: for IC50: curve of first compound; for viability, T/C: stronger effect = lower value
How it was run: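 Single agents and combinations were tested on spheroids built from tumor cells plus HUVEC and hMSC, at half-log dilutions starting at or near clinical Cmax, else 10 microM; final DMSO 0.25% (v/v).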

## CC(C)n1c(=O)n(C)c2cnc3cc(F)c(-c4ccc(OCCCN5CCCCC5)nc4)cc3c21 + Cn1nnc2c(C(N)=O)ncn2c1=O
Second compound 1 µM
  IC50: 5.83 µM
Second compound 3.16 µM
  IC50: 5.92 µM
Second compound 10 µM
  IC50: 6 µM
Second compound 31.6 µM
  IC50: 5.72 µM
Second compound 100 µM
  IC50: > 10 µM
Second compound 1 µM, first compound 0.0316 µM
  viability, T/C: 111%
Second compound 1 µM, first compound 0.1 µM
  viability, T/C: 115%
Second compound 1 µM, first compound 0.316 µM
  viability, T/C: 120%
Second compound 1 µM, first compound 1 µM
  viability, T/C: 118%
Second compound 1 µM, first compound 3.16 µM
  viability, T/C: 102%
Second compound 1 µM, first compound 10 µM
  viability, T/C: 4.4%
Second compound 3.16 µM, first compound 0.0316 µM
  viability, T/C: 112%
Second compound 3.16 µM, first compound 0.1 µM
  viability, T/C: 113%
Second compound 3.16 µM, first compound 0.316 µM
  viability, T/C: 114%
Second compound 3.16 µM, first compound 1 µM
  viability, T/C: 102%
Second compound 3.16 µM, first compound 3.16 µM
  viability, T/C: 104%
Second compound 3.16 µM, first compound 10 µM
  viability, T/C: 4.91%
Second compound 10 µM, first compound 0.0316 µM
  viability, T/C: 114%
Second compound 10 µM, first compound 0.1 µM
  viability, T/C: 119%
Second compound 10 µM, first compound 0.316 µM
  viability, T/C: 109%
Second compound 10 µM, first compound 1 µM
  viability, T/C: 114%
Second compound 10 µM, first compound 3.16 µM
  viability, T/C: 109%
Second compound 10 µM, first compound 10 µM
  viability, T/C: 3.29%
Second compound 31.6 µM, first compound 0.0316 µM
  viability, T/C: 117%
Second compound 31.6 µM, first compound 0.1 µM
  viability, T/C: 108%
Second compound 31.6 µM, first compound 0.316 µM
  viability, T/C: 110%
Second compound 31.6 µM, first compound 1 µM
  viability, T/C: 99.4%
Second compound 31.6 µM, first compound 3.16 µM
  viability, T/C: 99.9%
Second compound 31.6 µM, first compound 10 µM
  viability, T/C: 3.07%
Second compound 100 µM, first compound 0.0316 µM
  viability, T/C: 122%
Second compound 100 µM, first compound 0.1 µM
  viability, T/C: 115%
Second compound 100 µM, first compound 0.316 µM
  viability, T/C: 115%
Second compound 100 µM, first compound 1 µM
  viability, T/C: 117%
Second compound 100 µM, first compound 3.16 µM
  viability, T/C: 105%
Second compound 100 µM, first compound 10 µM
  viability, T/C: 64%
